From PubChem BioAssay AID1963868 (Molecular Pharmacology Branch, DTP, NCI, 2024)

System: KRAS PDC tumor spheroids (HUVEC+MSC), viability
Experiment: Anticancer human tumor 254851-301-R-J1-PDC patient-derived colon carcinoma cell line growth inhibition [KRAS2]
Conditions: for IC50: curve of first compound; for viability, T/C: stronger effect = lower value
Source text: Multicellular complex tumor spheroid response to RAS pathway inhibitors in combination with a targeted agents in patient-derived cell lines with oncogenic KRAS variants from multiple cancer types
A high-throughput screen of multi-cell type tumor spheroids was designed to identify active combinations of targeted small molecules and KRAS pathway inhibitors. Complex spheroids include a stromal component modeled by human endothelial cells (HUVEC) and fibroblasts modeled by human mesenchymal stem cells (MSCs). The concentration ranges selected for each drug and investigational agent were based upon clinically achievable concentrations if the clinical Cmax of the agent was known.
Compounds. The drugs and investigational agents: BI-3406 (NSC825286), BAY-293 (NSC824723), batoprotafib (TNO155; NSC825523), sotorasib (AMG 510; NSC818433), MRTX1257 (NSC819558), elimusertib (BAY 1895344; NSC800525), molibresib (GSK525762; NSC774829), temuterkib (LY3214996; NSC803410), venetoclax (NSC766270), alisertib (NSC759677), olaparib (NSC753686), talazoparib (NSC767125), erdafitinib (NSC781556), ipatasertib (NSC767898), cabozantinib (NSC761068), nintedanib (NSC756659), abemaciclib (NSC768073), docetaxel (NSC628503), trametinib (NSC758246), and sapanisertib (NSC764658) were obtained from the National Cancer Institute (NCI) Developmental Therapeutics Program Chemical Repository. The FDA-approved anticancer drug set is available from the Developmental Therapeutics Program. […] The stock solutions were prepared in dimethyl sulfoxide (DMSO, Sigma-Aldrich, St. Louis, MO, cat. D2650) at 800-fold the tested concentration and stored at -70 degrees C prior to their use. All drugs and investigational agents were tested over a range starting from a high concentration at or near the clinical Cmax and decreasing in half-log increments. If the clinical Cmax for an agent had not been determined, the highest concentration tested was 10 microM.
Cell Culture. All cells were maintained in an incubator at 37 degrees C and 5% CO2 with 95% humidity. The PDC lines were cultured according to standard operating procedures established by the NCI PDMR (https://pdmr.cancer.gov/sops/default.htm). Briefly, all PDCs were thawed and cultured in Matrigel-coated flasks prepared with a working solution of 1X Ham's F-12 nutrient mix, without supplementation (Invitrogen, Waltham, MA, cat. 11765054), 100 U/mL penicillin-streptomycin (Invitrogen, cat. 15140122), and 2.5% Matrigel (Corning Inc., Corning, NY, cat. 354248) for the first three passages. All PDCs were cultured in complete DMEM/F-12 media containing advanced DMEM/F-12 (Invitrogen, cat. 12634028), 4.9% defined fetal bovine serum, heat inactivated (HyClone Laboratories Inc., Logan, UT, cat. SH30070.03HI), 389 ng/mL hydrocortisone (Sigma-Aldrich, cat. H4001), 9.7 ng/mL human EGF recombinant protein (Invitrogen, cat. PHG0313), 23.4 microg/mL adenine (Sigma-Aldrich, cat. A2786), 97.3 U/mL penicillin-streptomycin (Invitrogen, cat. 15140122), 1.9 mM L-glutamine (Invitrogen, cat. 25030081), and 9.7 microM Y-27632 dihydrochloride (Tocris Bioscience, Bristol, United Kingdom, cat. 1254). The PDCs were cultured in complete DMEM/F12 media without 9.7 microM Y-27632 dihydrochloride for at least two passages prior to the screen. The established cell line HOP-62 was cultured in RPMI 1640 medium, HEPES (Invitrogen, cat. 22400105) with 10% defined fetal bovine serum (HyClone Laboratories Inc., cat. SH30070.03) and 2 mM L-glutamine (Invitrogen, cat. 25030081). The pooled donor HUVEC were cultured in endothelial cell growth medium 2 (PromoCell, Heidelberg, Germany, cat. C-22011) and the hMSC were cultured in mesenchymal stem cell growth medium 2 (PromoCell, cat. C-28009). For all experiments, HUVEC and hMSC were used at passages </=5, while the malignant cell lines were used at passages </=15. […]

[1] = second compound 0.1 µM, first compound 0.0316 µM
[2] = second compound 0.1 µM, first compound 0.1 µM
[3] = second compound 0.1 µM, first compound 0.316 µM
[4] = second compound 0.1 µM, first compound 1 µM
[5] = second compound 0.1 µM, first compound 3.16 µM
[6] = second compound 0.316 µM, first compound 0.0316 µM
[7] = second compound 0.316 µM, first compound 0.1 µM
[8] = second compound 0.316 µM, first compound 0.316 µM
[9] = second compound 0.316 µM, first compound 1 µM
[10] = second compound 0.316 µM, first compound 3.16 µM
[11] = second compound 1 µM, first compound 0.0316 µM
[12] = second compound 1 µM, first compound 0.1 µM
[13] = second compound 1 µM, first compound 0.316 µM
[14] = second compound 1 µM, first compound 1 µM
[15] = second compound 1 µM, first compound 3.16 µM
[16] = second compound 3.16 µM, first compound 0.0316 µM
[17] = second compound 3.16 µM, first compound 0.1 µM
[18] = second compound 3.16 µM, first compound 0.316 µM
[19] = second compound 3.16 µM, first compound 1 µM
[20] = second compound 3.16 µM, first compound 3.16 µM
[21] = second compound 10 µM, first compound 0.0316 µM
[22] = second compound 10 µM, first compound 0.1 µM
[23] = second compound 10 µM, first compound 0.316 µM
[24] = second compound 10 µM, first compound 1 µM
[25] = second compound 10 µM, first compound 3.16 µM
[26] = second compound 0.1 µM, first compound 0.01 µM
[27] = second compound 0.316 µM, first compound 0.01 µM
[28] = second compound 1 µM, first compound 0.01 µM
[29] = second compound 3.16 µM, first compound 0.01 µM
[30] = second compound 10 µM, first compound 0.01 µM
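Also: spheroids exposed to compounds for seven days before readout.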
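For viability, T/C in this document: 100% = DMSO vehicle control luminescence of the spheroids.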

Compound	IC50 (second compound 0.1 µM)	IC50 (second compound 0.316 µM)	IC50 (second compound 1 µM)	IC50 (second compound 3.16 µM)	IC50 (second compound 10 µM)	viability, T/C [1]	viability, T/C [2]	viability, T/C [3]	viability, T/C [4]	viability, T/C [6]	viability, T/C [7]	viability, T/C [8]	viability, T/C [9]	viability, T/C [11]	viability, T/C [12]	viability, T/C [13]	viability, T/C [14]	viability, T/C [16]	viability, T/C [17]	viability, T/C [18]	further results
CC1OCC2(CCN(c3cnc(Sc4ccnc(N)c4Cl)c(N)n3)CC2)C1N (stereo not given) + C=CC(=O)N1CCN(c2nc(=O)n(-c3c(C)ccnc3C(C)C)c3nc(-c4c(O)cccc4F)c(F)cc23)C(C)C1	> 10000 nM	> 10000 nM	> 10000 nM	> 10000 nM	> 10000 nM	95%	91%	81.6%	60.2%	78%	99.2%	75.4%	71.4%	94.6%	84.7%	76.3%	74.1%	92.6%	71.1%	81.5%	viability, T/C [5]: 67.2%; viability, T/C (second compound 0.1 µM, first compound 10 µM): 61.9%; viability, T/C [10]: 60.5%; viability, T/C (second compound 0.316 µM, first compound 10 µM): 68.7%; viability, T/C [15]: 67.8%; viability, T/C (second compound 1 µM, first compound 10 µM): 67.5%; viability, T/C [19]: 63.9%; viability, T/C [20]: 72.2%; viability, T/C (second compound 3.16 µM, first compound 10 µM): 65.6%; viability, T/C [21]: 80.7%; viability, T/C [22]: 70.8%; viability, T/C [23]: 58.9%; viability, T/C [24]: 55.6%; viability, T/C [25]: 56%; viability, T/C (second compound 10 µM, first compound 10 µM): 66.3%
CCN1CCN(Cc2ccc(Nc3ncc(F)c(-c4cc(F)c5nc(C)n(C(C)C)c5c4)n3)nc2)CC1 + CC1OCC2(CCN(c3cnc(Sc4ccnc(N)c4Cl)c(N)n3)CC2)C1N	526 nM	483 nM	336 nM	48.2 nM	100 nM	99.2%	92.4%	61.7%	35.3%	87.5%	75.5%	62.6%	30.6%	81.2%	69.2%	52.5%	28.8%	56.6%	44%	28.6%	viability, T/C (second compound 0.1 µM, first compound 0.00316 µM): 94.5%; viability, T/C [26]: 92.5%; viability, T/C (second compound 0.316 µM, first compound 0.00316 µM): 93.9%; viability, T/C [27]: 91.2%; viability, T/C (second compound 1 µM, first compound 0.00316 µM): 82.7%; viability, T/C [28]: 94.3%; viability, T/C (second compound 3.16 µM, first compound 0.00316 µM): 54.2%; viability, T/C [29]: 49.7%; viability, T/C [19]: 26.8%; viability, T/C (second compound 10 µM, first compound 0.00316 µM): 62.5%; viability, T/C [30]: 65.8%; viability, T/C [21]: 54.8%; viability, T/C [22]: 51.3%; viability, T/C [23]: 35.5%; viability, T/C [24]: 13.5%
CC(=O)OC12COC1CC(O)C1(C)C(=O)C(O)C3=C(C)C(OC(=O)C(O)C(NC(=O)OC(C)(C)C)c4ccccc4)CC(O)(C(OC(=O)c4ccccc4)C21)C3(C)C (stereo not given) + C=CC(=O)N1CCN(c2nc(=O)n(-c3c(C)ccnc3C(C)C)c3nc(-c4c(O)cccc4F)c(F)cc23)C(C)C1	259 nM	243 nM	244 nM	253 nM	208 nM	94.6%	74.4%	44.6%	30.5%	98%	70.8%	44.9%	29.8%	84.5%	68.2%	45%	30%	93.5%	70.2%	45.7%	viability, T/C [26]: 104%; viability, T/C [5]: 26.7%; viability, T/C [27]: 90.9%; viability, T/C [10]: 27.4%; viability, T/C [28]: 88.1%; viability, T/C [15]: 26.5%; viability, T/C [29]: 105%; viability, T/C [19]: 30.6%; viability, T/C [20]: 27.5%; viability, T/C [30]: 93.5%; viability, T/C [21]: 87.1%; viability, T/C [22]: 70.9%; viability, T/C [23]: 38.1%; viability, T/C [24]: 26.1%; viability, T/C [25]: 24.1%
